These results are taken from US8664217B2, “Benzodiazepine compound and pharmaceutical composition” (Otsuka Pharmaceutical Co., Ltd., priority 2008, dated 2014).

For the assay, the target named is T1, human Kv1.5 channels (Homo sapiens, UniProt P22460).
T1 construct: Full-length human Kv1.5 cDNA was cloned from a human heart cDNA library; expressed in transfected cells; host or cells: CHO-K1
Nature of the assay: Measurement of human Kv1.5 channel current by whole-cell patch clamp method (human Kv1.5-expressing CHO-K1 cell line). It is filed as cell-based. As to conditions: human Kv1.5-expressing CHO-K1 cells, step end current at +40 mV, test compound 0.1, 1, 10 μM. The procedure:
Pharmacological Test 1 (1) Production of Human Kv1.5-Expressing CHO-K1 Cell Lines
CHO-K1 cell lines stably expressing human Kv1.5 channels were prepared in the following manner.
Full-length human Kv1.5 cDNA was cloned from a human heart cDNA library (produced by Stratagene). The obtained human Kv1.5 sequence corresponds to the sequence described in FASEB J. 5, 331-337 (1991).
The obtained human Kv1.5 cDNA was inserted into a plasmid encoding a CMV promoter and a G418 resistance marker to produce a Kv1.5 expression vector. The human Kv1.5 expression vector was transfected into CHO-K1 cells by the lipofectamine method. After culturing the cells in an F-12 medium (produced by Invitrogen Corp.) containing 10% FBS (produced by Invitrogen Corp.) for 3 or 4 days, the medium was replaced with a FBS-containing F-12 medium that included 1,000 μg/ml of G418 (produced by Invitrogen Corp.), and single colonies were isolated. The amount of Kv1.5 channel expression in the single colonies was quantified at the mRNA level by RT-PCR and then quantified at the protein level by western blotting. Finally, the expressed current was analyzed by patch clamp method. Cell lines expressing a current of 200 pA or more per cell were selected as channel-expressing cell lines for activity measurement by patch clamp method.
(3) Measurement of Ion Channel Current by Patch Clamp Method (Human Kv1.5-Expressing CHO-K1 Cell Line)
An experiment was carried out using a patch clamp setup at room temperature (20 to 26° C.). A perfusion chamber having a diameter of 20 mm (flow rate: about 5 ml/min) was mounted on the stage of a phase-contrast inverted microscope (produced by Nikon Corporation) placed on a vibration isolated table. A poly-L-lysine (produced by Sigma)-coated coverslip (diameter: 15 mm, produced by Matsunami Glass Ind., Ltd.) on which human Kv1.5-expressing cells were cultured was placed in the perfusion chamber.
Depolarizing stimulation pulses were applied and ionic current was recorded by using a patch clamp amplifier (EPC-7 or EPC-7 PLUS, produced by HEKA) and a personal computer (manufactured by IBM Corp.) in which software for data acquisition and analysis of ion channel current (PULSE 8.77, produced by HEKA) was installed. The current was measured in the whole-cell configuration of the patch-clamp technique. The tip (resistance: 2 to 4 MΩ) of a borosilicate glass pipette (produced by Sutter Instrument Co.) was gently placed on the cell membrane by using a three-dimensional mechanical micromanipulator (produced by Shoshin EM Corporation). […] Subsequently, stronger suction was applied to break the cell membrane. The capacitative current derived from the cell membrane was corrected using a patch clamp amplifier. Subsequently, the series resistance (Rs) between the pipette and the interior of the cell was measured and corrected.
The composition of the extracellular solution used is shown below. Unless otherwise specified, these components were obtained from Wako Pure Chemical Industries, Ltd.
Each test compound was prepared as a 1000-fold concentrated stock solution that was dissolved in DMSO and then diluted in the extracellular solution.
The composition of the electrode internal solution used is shown below. Unless otherwise specified, these components were obtained from Wako Pure Chemical Industries, Ltd.
(5) Measurement of Human Kv1.5 Current
While the membrane potential was bolded at −80 mV, depolarizing pulses (−80 mV for 0.05 seconds→+40 mV for 0.2 seconds →−40 mV for 0.2 seconds→−80 mV for 0.05 seconds) were applied at a stimulation frequency of 1 Hz to measure Kv1.5 channel current. More specifically, first, while perfusing an extracellular solution containing 0.1% DMSO and holding the membrane potential at −80 mV, depolarizing pulses were applied. The current obtained during the pulse application was recorded as a current in the absence of the test compounds. […]

Where a name gives a salt, the structure may show the parent alone.

T1 sequence (P22460 whole entry): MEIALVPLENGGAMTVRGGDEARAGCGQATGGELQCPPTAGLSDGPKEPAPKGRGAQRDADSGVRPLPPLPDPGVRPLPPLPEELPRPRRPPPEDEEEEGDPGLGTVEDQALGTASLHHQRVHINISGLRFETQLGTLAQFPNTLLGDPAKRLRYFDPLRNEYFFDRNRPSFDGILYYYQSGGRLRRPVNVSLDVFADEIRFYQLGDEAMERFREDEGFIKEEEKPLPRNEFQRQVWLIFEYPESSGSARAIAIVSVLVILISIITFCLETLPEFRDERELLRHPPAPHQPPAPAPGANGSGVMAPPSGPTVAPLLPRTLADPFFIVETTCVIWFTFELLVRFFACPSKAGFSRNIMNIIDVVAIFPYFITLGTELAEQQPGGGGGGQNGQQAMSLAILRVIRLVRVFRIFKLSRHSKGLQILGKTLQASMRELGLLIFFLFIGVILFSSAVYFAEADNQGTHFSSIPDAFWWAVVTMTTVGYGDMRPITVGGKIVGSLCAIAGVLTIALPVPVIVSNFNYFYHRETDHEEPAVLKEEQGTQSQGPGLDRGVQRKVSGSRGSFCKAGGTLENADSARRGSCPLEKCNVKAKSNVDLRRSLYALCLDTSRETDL

For `CCN1C(=O)C(C)(C)C(=O)N(C)c2cc(OCCCN(CCn3ccc4occc4c3=O)Cc3cnccc3C)ccc21` [Example 590, 1-ethyl-3,3,5-trimethyl-7-(3-{(4-methylpyridin-3-ylmethyl)-[2-(4-oxo-4H-furo[3,2-c]pyridin-5-yl)ethyl]-amino}propoxy)-1,5-dihydrobenzo[b][1,4]diazepine-2,4-dione], the concentration for half-maximal inhibition (IC50) was determined as 0.46 µM.
Then `CCN1C(=O)C(C)(C)C(=O)N(C)c2cc(OCCCN(CCc3cccnc3)Cc3ccncc3C)ccc21` [Example 54, 1-ethyl-3,3,5-trimethyl-7-{3-[(3-methylpyridin-4-ylmethyl)-(2-pyridin-3-ylethyl)amino]propoxy}-1,5-dihydrobenzo[b][1,4]diazepine-2,4-dione trihydrochloride], with 0.28 µM; and `CCN1C(=O)C(C)(C)C(=O)N(C)c2cc(OCCCN(CCn3ccc4ccccc4c3=O)S(=O)(=O)c3ccccc3)ccc21` [Example 634, N-[3-(1-ethyl-3,3,5-trimethyl-2,4-dioxo-2,3,4,5-tetrahydro-1H-benzo[b][1,4]diazepin-7-yloxy)propyl]-N-[2-(1-oxo-1H-isoquinolin-2-yl)ethyl]benzenesulfonamide], with 0.36 µM; and `CCN1C(=O)C(C)(C)C(=O)N(C)c2cc(OCCCN(CCn3ccc4ccoc4c3=O)Cc3ccc(C(F)(F)F)cc3)ccc21` [Example 395], with 0.19 µM.
On to `CCN1C(=O)C(C)(C)C(=O)N(C)c2cc(OCCCN(CCc3cccnc3)Cc3cccc(C#N)c3)ccc21` [Example 229], for which the IC50 amounted to 0.16 µM.
Molecule `CCN1C(=O)C(C)(C)C(=O)N(C)c2cc(OCCCN(CCc3cccnc3)S(=O)(=O)c3ccccc3)ccc21` [Example 628, N-[3-(1-ethyl-3,3,5-trimethyl-2,4-dioxo-2,3,4,5-tetrahydro-1H-benzo[b][1,4]diazepin-7-yloxy)propyl]-N-(2-pyridin-3-ylethyl)benzenesulfonamide hydrochloride] registered an IC50 of 0.98 µM.
Then `CCN1C(=O)C(C)(C)C(=O)N(C)c2cc(OCCCN(CCc3cccnc3)Cc3ccncc3)ccc21` [Example 8, 1-ethyl-3,3,5-trimethyl-7-{3-[(2-pyridin-3-ylethyl)pyridin-4-ylmethylamino]propoxy}-1,5-dihydrobenzo[b][1,4]diazepine-2,4-dione trihydrochloride], with 0.4 µM.
In turn, `CCN1C(=O)C(C)(C)C(=O)N(C)c2cc(OCCCN(CCn3ccc4ccccc4c3=O)Cc3ccncc3)ccc21` [Example 23, 1-ethyl-3,3,5-trimethyl-7-(3-{[2-(1-oxo-1H-isoquinolin-2-yl)ethyl]pyridin-4-ylmethylamino}propoxy)-1,5-dihydrobenzo[b][1,4]diazepine-2,4-dione dihydrochloride] came in with an IC50 of 0.18 µM.
Then `CCN1C(=O)C(C)(C)C(=O)N(C)c2cc(OCCCN(CCn3ccc4ccccc4c3=O)Cc3ccco3)ccc21` [Example 132], with 0.27 µM.
The molecule `CCN1C(=O)C(C)(C)C(=O)N(C)c2cc(OCCCN(CCn3ccc4occc4c3=O)Cc3cccnc3)ccc21` [Example 551, 1-ethyl-3,3,5-trimethyl-7-(3-{[2-(4-oxo-4H-furo[3,2-c]pyridin-5-yl)ethyl]pyridin-3-ylmethylamino}-propoxy)-1,5-dihydrobenzo[b][1,4]diazepine-2,4-dione] came in with an IC50 of 0.39 µM.
Then `CCN1C(=O)C(C)(C)C(=O)N(C)c2cc(OCCCN(CCn3ccc4sccc4c3=O)Cc3cccnc3C)ccc21` [Example 595, 1-ethyl-3,3,5-trimethyl-7-(3-{(2-methylpyridin-3-ylmethyl)-[2-(4-oxo-4H-thieno[3,2-c]pyridin-5-yl)ethyl]-amino}propoxy)-1,5-dihydrobenzo[b][1,4]diazepine-2,4-dione], with 0.5 µM; and `CCN1C(=O)C(C)(C)C(=O)N(C)c2cc(OCCCN(CCn3ccc4occc4c3=O)Cc3cccnc3C)ccc21` [Example 575, 1-ethyl-3,3,5-trimethyl-7-(3-{(2-methylpyridin-3-ylmethyl)-[2-(4-oxo-4H-furo[3,2-c]pyridin-5-yl)ethyl]-amino}propoxy)-1,5-dihydrobenzo[b][1,4]diazepine-2,4-dione], with 0.44 µM.

What is called IC50 is the concentration at which inhibition is half-maximal. Lower therefore signals inhibition by little substance.
